Measured values reported in patent US20250059139A1, “COMPOUNDS FOR TREATMENT OF CANCER” (THE JOHNS HOPKINS UNIVERSITY, priority 2021, published 2025).

Columns and labels:
[1] = target: T1, fl-R681A/R798A double mutant HDAC4 (Homo sapiens, UniProt P56524, R681A/R798A); test: SPR binding of fl-R681A/R798A double mutant HDAC4 to immobilized TasQ; conditions: TasQ in solution
T1 construct: Full-length (fl) [A.A. 1-1082] recombinant human histone deacetylase 4 (rhHDAC4) protein; FLAG (N); GST (given as 'with or without'); made in house; host or cells: HEK293-T
Procedure: Surface Plasmon Resonance (SPR) Binding Analysis. SPR analysis was performed on the Biacore 3000™ system using CM5 sensor chips, certified buffers (HBS-P—10 mM HEPES, 0.15 M NaCl, pH 7.4, containing 0.005% v/v Surfactant P; HBS-EP-HBS-P with 3 mM EDTA) and reagents for immobilization and surface regeneration from Biacore, GE Healthcare, Uppsala Sweden. Evaluation of sensorgrams was performed using the BIA-evaluation Software version 4.1 and GraphPad Prism 4. Buffer of protein reagents were changed to HBS-P on Zeba spin desalting columns (Thermo Scientific) prior to being used in SPR analysis (Isaacs 2013).
A. Binding of wild-type and mutant forms of HDAC4 to immobilized TasQ. TasQ (ABR-215050; mol wt 406.4) was dissolved as a 40 mM solution in water with 1.5 equivalents of NaOH. TasQ with an amino-linker [i.e. —(CH2)2O(CH2)2—NH2](ABR-225180) in amide nitrogen position was used for amine coupling on to a Biacore CM5 sensor chip. A 1 mg/mL solution of ABR-225180 in HBS-P buffer was prepared and immobilized on a CM5 chip by injection at a flow rate of 5 or 10 μL/min until a stable response level was reached. Interaction of various HDAC4 forms with immobilized TasQ was studied by injection over this surface in HBS-P buffer containing 10 or 20 μM ZnCl2. Bound HDAC4 was removed by a pulse of 3 mM EDTA in HBS-P or 0.5 to 6.25 mM NaOH in water. […]

HDAC4 KD LNCaP cells = test: In vitro growth of HDAC4 KD LNCaP cells; format: cell-based, human
Procedure: Generation of stable shRNA Knock Down (KD) Variants. Stable shRNA HDAC4, and HIF-1α knockdown (KD) were as described previously (id.). Stable shRNA AHR KD as described previously (id.) using […] (SEQ ID NO: 1) as the targeting sequence.
Similarly, under such optimal conditions, knocking down HDAC4 expression by 50% with shRNA only decreases the growth of LNCaP cells by <25%, which is equivalent to the inhibition by TasQ at 10 μM (FIG. 22). […] In contrast to normoxic in vitro conditions, cancers outgrow their blood supply in vivo, producing a TME that is hypoxic, nutrient-limited, and acidic (low pH). For example, when prostate cancer xenografts growing subcutaneously reach a size of ˜0.2-0.3 cc, the TME is already hypoxic with a pO2 of 3.6+/−1.5 mmHg compared to 37.5+/−8.6 mmHg in normal tissue (Dalrymple et al. Prostate 72, 638-648 (2012)). When LNCaP cells are switched from 21% O2 (i.e., 160 mmHg) to a hypoxic condition of 1% O2 (i.e., 7.6 mmHg), their growth decreases by 50% (FIG. 22). This hypoxia-induced growth inhibition is enhanced by either knocking down HDAC4 or by treatment with TasQ (FIG. 22).

T1 sequence (P56524 whole entry R681A/R798A): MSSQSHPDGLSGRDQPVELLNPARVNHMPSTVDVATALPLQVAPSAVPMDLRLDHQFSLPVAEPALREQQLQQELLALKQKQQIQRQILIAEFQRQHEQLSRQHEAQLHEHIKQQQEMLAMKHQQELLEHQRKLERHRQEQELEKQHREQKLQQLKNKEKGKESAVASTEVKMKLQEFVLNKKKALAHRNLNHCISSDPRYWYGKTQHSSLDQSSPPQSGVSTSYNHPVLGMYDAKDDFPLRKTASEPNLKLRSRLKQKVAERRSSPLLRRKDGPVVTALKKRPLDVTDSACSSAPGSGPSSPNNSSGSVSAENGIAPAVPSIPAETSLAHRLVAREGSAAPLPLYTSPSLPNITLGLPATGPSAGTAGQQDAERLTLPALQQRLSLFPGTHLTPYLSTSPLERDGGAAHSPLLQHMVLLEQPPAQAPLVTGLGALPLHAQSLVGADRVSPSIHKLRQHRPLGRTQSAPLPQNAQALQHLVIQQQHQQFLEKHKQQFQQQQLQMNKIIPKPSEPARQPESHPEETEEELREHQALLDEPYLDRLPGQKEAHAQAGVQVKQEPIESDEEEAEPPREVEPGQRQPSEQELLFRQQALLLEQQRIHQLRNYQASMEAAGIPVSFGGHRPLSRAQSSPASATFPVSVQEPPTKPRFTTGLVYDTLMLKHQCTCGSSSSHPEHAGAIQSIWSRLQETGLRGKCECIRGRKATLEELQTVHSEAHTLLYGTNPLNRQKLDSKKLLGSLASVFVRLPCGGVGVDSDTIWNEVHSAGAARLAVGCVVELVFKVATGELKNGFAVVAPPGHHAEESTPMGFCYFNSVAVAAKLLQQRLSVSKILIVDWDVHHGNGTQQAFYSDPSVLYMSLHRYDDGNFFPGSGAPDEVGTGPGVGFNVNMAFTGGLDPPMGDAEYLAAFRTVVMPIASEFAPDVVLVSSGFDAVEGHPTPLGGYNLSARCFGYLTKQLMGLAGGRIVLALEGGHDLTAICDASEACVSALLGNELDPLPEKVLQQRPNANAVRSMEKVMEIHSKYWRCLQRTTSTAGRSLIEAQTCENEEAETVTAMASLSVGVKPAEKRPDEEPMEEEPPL

COc1cccc2c1c(O)c(C(=O)N(C)c1ccc(C(F)(F)F)cc1)c(=O)n2C [TasQ, Tasquinimod]
competitive displacement of mutant HDAC4 from immobilized TasQ [1]: not competitively displaced | effect on HDAC4 KD cells exposed to hypoxia (HDAC4 KD LNCaP cells; 10 μM, 1% O2): the cells die | inhibition at 10 µM (HDAC4 KD LNCaP cells; Homo sapiens, LNCaP, normoxic): > 50%
